In patent publication US4420639A, “Aromatic compounds” (Beecham Group Limited, priority 1973, dated 1983):

Tests used:
[1] = tested on: stomach / gastro-intestinal tract; test: Gastro-intestinal irritancy at or near the therapeutic dose (general statement); type: in vivo
oestrogenicity = test: Oestrogenic effects (general statement); type: in vivo; settings: at the therapeutic dose
[2] = tested on: Carrageenin Induced Oedema; test: Carrageenin Induced Oedema in Rats; type: in vivo, rat; settings: 5, 10, 35 and 70 mg/kg p.o.
From the text: a. Carrageenin Induced Oedema in Rats.

[3] = tested on: Cotton Pellet Induced Granuloma; test: Cotton Pellet Induced Granuloma in Rats; type: in vivo, rat; settings: 50 mg/kg p.o. dosed from day 0 to 5 days
Method: c. Cotton Pellet Induced Granuloma in Rats. Consistent activity (reducing induced granuloma by more than 30%) has been observed at 50 mg/kg p.o. dosed from day 0 to 5 days.

Adjuvant arthritis = test: Adjurant Arthritis in Rats; type: in vivo, rat; settings: daily administration of 60 mg/kg p.o.
Method: d. Adjurant Arthritis in Rats.
Adjuvant arthritis is reduced in rats by the daily administration of doses of 60 mg/kg p.o.

[4] = tested on: cultured mouse peritoneal macrophages; test: Macrophage Plasmongen Activator Release test; type: cell-based; settings: 1 mg/ml
[5] = tested on: pyresis induced by Shigella endotoxin; test: Anti-pyretic Effect in Rabbits; type: in vivo, rabbit; settings: doses down to 100 mg/kg p.o.; intravenous Shigella endotoxin
From the text: g. Anti-pyretic Effect in Rabbits.

Adrenal/Pitutary Axis = test: Interactions with the Adrenal/Pitutary Axis; type: in vivo; settings: five days at 140 mg/kg p.o./day; response to ACTH or ether stress
From the text: h. Interactions with the Adrenal/Pitutary Axis.

[6] = tested on: ovariectomised rats, uterine weight; test: Oestrogenic Test in Rats (uterine weight); type: in vivo, rat; settings: 200 mg/kg p.o. and 600 mg/kg p.o. for 4 days
From the text: i. Oestrogenic Test in Rats.

[7] = tested on: uterus / endometrium (Clauberg test); test: Gestagenic Activity in Rabbits (Clauberg test); type: in vivo, rabbit; settings: 200 mg/kg p.o. for 4 days
From the text: k. Gestagenic Activity in Rabbits.

pyloric ligated rat = test: Gastric Damage in Pyloric Ligated Rats; type: in vivo; settings: up to 200 mg/kg intra-duadenally
From the text: l. Gastric Damage in Pyloric Ligated Rats.

[8] = tested on: gastric erosions or ulceration; test: Ulcerogenic Activity in Rats; type: in vivo, rat; settings: 250 mg/kg p.o. or 500 mg/kg p.o.
From the text: m. Ulcerogenic Activity in Rats.

In the case of `COc1ccc2cc(CCC(C)=O)ccc2c1` [4-(6'-methoxy-2'-naphthyl)butan-2-one], the “irritation of the stomach / gastric-irritant effects” value [1] is reported as “not causing either oestrogenic effects or pronounced gastric-irritant effects”, the oestrogenic effects (oestrogenicity) is reported as “not causing either oestrogenic effects” and the “reduction in induced oedema volume” value [2] is reported as “significant reduction in induced oedema volume”. The “changes in body weight or in the weight of the spleen, thymus, kidney, liver or adrenal glands” value [3] was “not accompanied by marked changes”, the “reduction of induced granuloma” value [3] was “more than 30%” and the “reduction of adjuvant arthritis” value (Adjuvant arthritis) was “reduced”. For the same molecule, the “inhibition of the release of plasmogen activator” value [4] was “slight inhibition”, the reduction of pyresis [5] was “reduced pyresis” and the “interference with release of corticosteroids from the adrenal gland” value (Adrenal/Pitutary Axis) was “does not interfere with release of corticosteroids”. For the same molecule, the “increase in uterine weight” value [6] was “did not result in any increase in uterine weight”, the “uterine hypertrophy or progestational changes in the endometrium” value [7] was “did not result in uterine hypertrophy or progestational changes in the endometrium” and the overt gastric damage (pyloric ligated rat) was “nor did overt gastric damage result”. The “systemically mediated effect on the volume of gastric secretion” value (pyloric ligated rat) was “have not been found to have a systemically mediated effect on the volume of gastric secretion”, the “gastric erosions at longer contact times” value ([8]; longer contact times than 4 hours) was “did lead in some cases to some degree of erosions” and the “gastric erosions or ulceration” value ([8]; starved 18 hours, examined 1 or 4 hours after dosing) was “did not give rise to gastric erosions or ulceration”.
